Source: patent US20180273531A1, “PYRIMIDINE COMPOUND AND MEDICAL USE THEREOF” (Japan Tobacco Inc., priority 2004, published 2018)

Tested on: p15 protein
Experiment: Evaluation of p15 induction activity (Western blotting)
Assay type: cell-based
Conditions: test substance 0.1 μM, 24 hrs, ACHN cells or HT-29 cells, compared to DMSO, n=2
Procedure: ACHN cells or HT-29 cells were cultured in a 6 well plate at 2.5×10^5 cells/1.8 mL/well for 24 hrs, then a test substance (0.1 μM) dissolved in DMSO was added. After 24 hrs, cells were detached using trypsin-EDTA (ethylene diamine tetraacetic acid) and solubilized with NuPAGE LDS sample buffer (Invitrogen). Using an RC DC protein assay kit (BIO-RAD), the protein concentration of the sample was quantitated, and a sample in an amount corresponding to 10 μg of BSA (bovine serum albumin) was analyzed by Western blotting using an anti-p15 antibody. The density of the band stained with the anti-p15 antibody was measured by a densitometer to quantify the amount of p15 protein. As a control, DMSO was used and the test was performed with n=2 and the average protein amount was determined.

SMILES | fold induction at 0.1 µM
CCn1c(=O)c2c(Nc3ccc(Br)cc3)cc(=O)n(C)c2n(-c2cccnc2)c1=O [Example 1-131] | ≥ 1.5
Cn1c(=O)cc(Nc2ccc(F)cc2)c2c(=O)n(-c3ccccc3)c(=O)n(-c3ccccc3)c21 [Example 1-8] | ≥ 1.5
Cn1c(=O)cc(Nc2ccc(Cl)cc2)c2c(=O)n(C3CCCC3)c(=O)n(-c3ccccc3)c21 [Example 1-80] | ≥ 1.5
CC(C)n1c(=O)c2c(Nc3ccc(Cl)cc3)cc(=O)n(C)c2n(-c2ccccc2)c1=O [Example 1-81] | ≥ 1.5
Cc1cc(Cl)ccc1Nc1cc(=O)n(C)c2c1c(=O)n(-c1ccccc1)c(=O)n2-c1ccccc1 [Example 1-53] | ≥ 1.5
Cn1c(=O)cc(Nc2ccc(C(=O)O)cc2)c2c(=O)n(-c3ccccc3)c(=O)n(-c3ccccc3)c21 [Example 1-37] | ≥ 1.5
Cc1cc(Nc2cc(=O)n(C)c3c2c(=O)n(C2CC2)c(=O)n3-c2ccccc2)ccc1Br [Example 1-157] | ≥ 1.5
Cn1c(=O)c2c(Nc3ccc(Cl)cc3)cc(=O)n(C)c2n(-c2ccccc2)c1=O [Example 1-35] | ≥ 1.5
CCCC(CCC)c1ccc(Nc2cc(=O)n(C)c3c2c(=O)n(-c2ccccc2)c(=O)n3-c2ccccc2)cc1 [Example 1-40] | ≥ 1.5

Tested on: colorectal cancer cell line HT-29 cells
Experiment: Growth inhibitory effect against cancer cell lines (3H-thymidine uptake), HT-29
Assay type: cell-based
Conditions: Homo sapiens, HT-29, inhibition of 3H-thymidine uptake; test substance 18 hrs, then 3H-thymidine 6 hrs; triplicate
Procedure: Renal cancer cell line ACHN cell or colorectal cancer cell line HT-29 cells were cultured in a 96 well plate at 1.0×10^4 cells/90 μL/well for 24 hrs, then a test substance dissolved in DMSO (dimethyl sulfoxide) was added. After 18 hrs, ^3H-thymidine (0.25 μCi/well) was added and the cells were cultured for 6 hrs. Using a cell harvester, the cells were recovered on a UniFilter-96 GF/B glass filter and the ^3H radioactivity uptaken by the cells was measured by TopCount (Packard). As a control, DMSO was used and the activity of the test substance was expressed in the concentration (IC50) necessary for inhibiting ^3H radioactivity uptaken by the cell to 50% of that of the control group. The measurements were made in triplicate.

SMILES | IC50
Cn1c(=O)cc(Nc2ccc(Br)cc2F)c2c(=O)n(C3CC3)c(=O)n(-c3ccc(S(C)(=O)=O)cc3)c21 [Example 1-225] | 0.1 to 1 µM
Cn1c(=O)cc(Nc2ccc(Br)cc2F)c2c(=O)n(C3CC3)c(=O)n(-c3cccc(N4CCCCC4=O)c3)c21 [Example 1-214] | 0.01 to 0.1 µM
Cn1c(=O)cc(Nc2ccc(Br)cc2F)c2c(=O)n(C3CC3)c(=O)n(-c3cccc(NCCN)c3)c21 [Example 1-334] | 0.1 to 1 µM
Cn1c(=O)cc(Nc2ccc(Br)cc2F)c2c(=O)n(C3CC3)c(=O)n(-c3cccc(NS(=O)(=O)CCN)c3)c21 [Example 1-313] | 0.01 to 0.1 µM
CNC(=O)c1cccc(-n2c(=O)n(C3CC3)c(=O)c3c(Nc4ccc(Br)cc4F)cc(=O)n(C)c32)c1 [Example 1-292] | 0.01 to 0.1 µM
Cn1c(=O)cc(Nc2ccc(Br)cc2F)c2c(=O)n(C3CC3)c(=O)n(-c3cccc(CCC(=O)O)c3)c21 [Example 1-201] | 0.1 to 1 µM
CCN(CC)CCOc1cccc(-n2c(=O)n(C3CC3)c(=O)c3c(Nc4ccc(Br)cc4F)cc(=O)n(C)c32)c1 [Example 1-235] | 0.1 to 1 µM
CCN(C)c1ccc(Nc2cc(=O)n(C)c3c2c(=O)n(C2CC2)c(=O)n3-c2ccccc2)c(F)c1 [Example 1-217] | 0.1 to 1 µM
Cn1c(=O)cc(Nc2ccc(Br)cc2F)c2c(=O)n(C3CC3)c(=O)n(-c3cccc(CCCN4CCCCC4)c3)c21 [Example 1-255] | 0.1 to 1 µM
CCn1c(=O)c2c(Nc3ccc(Br)cc3F)cc(=O)n(C)c2n(-c2cccnc2)c1=O [Example 1-244] | 0.1 to 1 µM
CN(C)CCCc1cccc(-n2c(=O)n(C3CC3)c(=O)c3c(Nc4ccc(Br)cc4F)cc(=O)n(C)c32)c1 [Example 1-252] | 0.01 to 0.1 µM
COc1ccccc1-n1c(=O)n(C2CC2)c(=O)c2c(Nc3ccc(Br)cc3)cc(=O)n(C)c21 [Example 1-159] | 0.1 to 1 µM
COc1ccc(Nc2cc(=O)n(C)c3c2c(=O)n(C2CC2)c(=O)n3-c2ccccc2)cc1 [Example 1-129] | 0.1 to 1 µM
CN(C)CC(=O)Nc1cccc(-n2c(=O)n(C3CC3)c(=O)c3c(Nc4ccc(Br)cc4F)cc(=O)n(C)c32)c1 [Example 1-277] | 0.01 to 0.1 µM
Cn1c(=O)cc(Nc2ccc(C(F)(F)F)cc2)c2c(=O)n(C3CC3)c(=O)n(-c3ccccc3)c21 [Example 1-273] | 0.1 to 1 µM
COc1cc(Br)ccc1Nc1cc(=O)n(C)c2c1c(=O)n(C1CC1)c(=O)n2-c1ccccc1 [Example 1-189] | 0.1 to 1 µM
COc1ccc(Nc2cc(=O)n(C)c3c2c(=O)n(C2CC2)c(=O)n3-c2ccccc2)c(Br)c1 [Example 1-211] | 0.1 to 1 µM
COc1cccc(-n2c(=O)n(C3CC3)c(=O)c3c(Nc4ccc(Br)cc4)cc(=O)n(C)c32)c1 [Example 1-190] | 0.1 to 1 µM

SMILES | IC50
Cn1c(=O)cc(Nc2ccc(Br)cc2F)c2c(=O)n(C3CC3)c(=O)n(-c3cccc(N4CCCC4)c3)c21 [Example 1-215] | 0.1 to 1 µM
Cn1c(=O)cc(Nc2ccc(Br)cc2F)c2c(=O)n(C3CC3)c(=O)n(-c3cccc(OCCN4CCCC4)c3)c21 [Example 1-233] | 0.1 to 1 µM
Cn1c(=O)cc(Nc2ccc(Br)cc2F)c2c(=O)n(C3CC3)c(=O)n(-c3cccc(NC(=O)CCO)c3)c21 [Example 1-305] | 0.01 to 0.1 µM
CN(C)CCCOc1cccc(-n2c(=O)n(C3CC3)c(=O)c3c(Nc4ccc(Br)cc4F)cc(=O)n(C)c32)c1 [Example 1-227] | 0.01 to 0.1 µM
CN1CCN(CCCOc2cccc(-n3c(=O)n(C4CC4)c(=O)c4c(Nc5ccc(Br)cc5F)cc(=O)n(C)c43)c2)CC1 [Example 1-236] | 0.1 to 1 µM
Cn1c(=O)cc(Nc2ccc(Br)cc2F)c2c(=O)n(C3CC3)c(=O)n(-c3cccc(N4CCCCC4)c3)c21 [Example 1-216] | 0.1 to 1 µM
CCc1ccc(Nc2cc(=O)n(C)c3c2c(=O)n(C2CC2)c(=O)n3-c2ccccc2)cc1 [Example 1-230] | 0.1 to 1 µM
CCn1c(=O)c2c(Nc3ccc(Br)cc3F)cc(=O)n(C)c2n(-c2ccccc2)c1=O [Example 1-164] | 0.01 to 0.1 µM
CCCc1ccc(Nc2cc(=O)n(C)c3c2c(=O)n(C2CC2)c(=O)n3-c2ccccc2)c(F)c1 [Example 1-258] | 0.1 to 1 µM
Cn1c(=O)cc(Nc2ccc(CC(F)F)cc2)c2c(=O)n(C3CC3)c(=O)n(-c3ccccc3)c21 [Example 1-326] | 0.1 to 1 µM
Cn1c(=O)cc(Nc2ccc(Br)cc2F)c2c(=O)n(C3CC3)c(=O)n(-c3cccc(OCCN4CCCCC4)c3)c21 [Example 1-234] | 0.1 to 1 µM
CC(C)c1ccc(Nc2cc(=O)n(C)c3c2c(=O)n(C2CC2)c(=O)n3-c2ccccc2)cc1 [Example 1-229] | 0.1 to 1 µM
CN1CCN(c2cccc(-n3c(=O)n(C4CC4)c(=O)c4c(Nc5ccc(Br)cc5F)cc(=O)n(C)c43)c2)CC1 [Example 1-206] | 0.1 to 1 µM
CN(C)C(=O)Nc1cccc(-n2c(=O)n(C3CC3)c(=O)c3c(Nc4ccc(Br)cc4F)cc(=O)n(C)c32)c1 [Example 1-324] | 0.01 to 0.1 µM
Cn1c(=O)cc(Nc2ccc(Cl)cc2F)c2c(=O)n(C3CC3)c(=O)n(-c3ccccc3)c21 [Example 1-171] | 0.01 to 0.1 µM
C=CCn1c(=O)c2c(Nc3ccc(N(C)C)cc3)cc(=O)n(C)c2n(-c2ccccc2)c1=O [Example 1-140] | 0.1 to 1 µM
Cn1c(=O)cc(Nc2ccc(Br)cc2F)c2c(=O)n(C3CC3)c(=O)n(-c3cccc(S(N)(=O)=O)c3)c21 [Example 1-288] | 0.01 to 0.1 µM

Now from value to molecule:

IC50 | SMILES
0.1 to 1 µM | CC(=O)Nc1ccc(-n2c(=O)n(C3CC3)c(=O)c3c(Nc4ccc(Br)cc4F)n(C)c(=O)c(C)c32)cc1 [Example 4-4]
0.1 to 1 µM | Cc1c(=O)n(C)c(Nc2ccc(Br)cc2)c2c(=O)n(CCO)c(=O)n(-c3ccccc3)c12 [Example 4-85]
0.1 to 1 µM | Cc1c(=O)n(C)c(Nc2ccc(I)cc2F)c2c(=O)n(CCCO)c(=O)n(-c3cccc(NC(=O)CO)c3)c12 [Example 4-148]
0.1 to 1 µM | Cc1c(=O)n(C)c(Nc2ccc(I)cc2F)c2c(=O)n(CCCO)c(=O)n(-c3ccccc3)c12 [Example 4-147]
0.1 to 1 µM | Cc1c(=O)n(C)c(Nc2ccc(I)cc2F)c2c(=O)n(CCCO)c(=O)n(-c3ccc4oc(=O)[nH]c4c3)c12 [Example 4-146]
0.01 to 0.1 µM | CCc1ccc(Nc2c3c(=O)n(C4CC4)c(=O)n(-c4ccc(NC(C)=O)cc4)c3c(C)c(=O)n2C)c(F)c1 [Example 4-75]
0.1 to 1 µM | CC(=O)N(C(C)=O)c1cccc(-n2c(=O)n(C3CC3)c(=O)c3c(Nc4ccc(I)cc4F)n(C)c(=O)c(C)c32)c1 [Example 4-140]
0.1 to 1 µM | CC(=O)N(c1cccc(-n2c(=O)n(C3CC3)c(=O)c3c(Nc4ccc(I)cc4F)n(C)c(=O)c(C)c32)c1)S(C)(=O)=O [Example 4-133]
0.1 to 1 µM | CCCCC(=O)NCCC(=O)Nc1cccc(-n2c(=O)n(C3CC3)c(=O)c3c(Nc4ccccc4F)n(C)c(=O)c(C)c32)c1 [Example 4-13]
0.1 to 1 µM | CC(=O)Nc1cccc(-n2c(=O)n(C3CC3)c(=O)c3c(Nc4ccc(C5CCCC5)cc4F)n(C)c(=O)c(C)c32)c1 [Example 4-57]
0.1 to 1 µM | Cc1c(=O)n(C)c(Nc2ccc(I)cc2F)c2c(=O)n(CCCO)c(=O)n(-c3cccc(NS(C)(=O)=O)c3)c12 [Example 4-145]
0.1 to 1 µM | CC(=O)Nc1cccc(-n2c(=O)n(CCCO)c(=O)c3c(Nc4ccc(I)cc4F)n(C)c(=O)c(C)c32)c1 [Example 4-135]
0.1 to 1 µM | CC(=O)N(c1cccc(-n2c(=O)n(C3CC3)c(=O)c3c(Nc4ccc(I)cc4F)n(C)c(=O)c(C)c32)c1)S(=O)(=O)N(C)C [Example 4-138]
0.1 to 1 µM | CC(=O)Nc1cccc(-n2c(=O)n(C3CC3)c(=O)c3c(Nc4ccccc4F)n(C)c(=O)c(C)c32)c1 [Example 4-7]
0.01 to 0.1 µM | COc1ccc(-n2c(=O)n(C3CC3)c(=O)c3c(Nc4ccc(I)cc4F)n(C)c(=O)c(C)c32)cc1NC(C)=O [Example 4-63]
